Among the data in ChEMBL document CHEMBL4619789, “RAF Kinases in Cancer: A Moving Target and Degradation Therapy” (ACS Med Chem Lett, 2020) are %max and DC50 values, retold here.

The test system of one test is A-375. The test is described as follows: Protac activity at E3 ubiquitin-protein ligase/B-raf V600E mutant in human A375 cells assessed as induction of B-raf V600E degradation measured after 72 hrs by Western cellular assay relative to control. In kind it is cell-based.
Test [1] is described as follows: Protac activity at E3 ubiquitin-protein ligase/B-raf V600E mutant in human A375 cells assessed as induction of B-raf V600E degradation measured after 72 hrs by Western cellular assay. It is filed as cell-based. As to conditions: A-375, 72 h.

SMILES strings stand for the structures. Bounds are passed on as bounds.

Turning to `Cc1ncsc1-c1ccc([C@H](CO)NC(=O)[C@@H]2C[C@@H](O)CN2C(=O)[C@@H](c2cc(N3CCC(N4CCN(c5ccc(-c6cnc7[nH]cc(C(=O)c8c(F)ccc(NS(=O)(=O)N9CC[C@@H](F)C9)c8F)c7c6)cc5)CC4)CC3)no2)C(C)C)cc1`, the %max with A-375 is above 70%. The DC50 in test [1] fell in the range of 10 to 50 nM.
On the same counts, the results for `Cc1ncsc1-c1ccc(CNC(=O)[C@@H]2C[C@@H](O)CN2C(=O)[C@@H](NC(=O)CN2CCN(CC3CCN(c4ccc(-c5cnc6[nH]cc(C(=O)c7c(F)ccc(NS(=O)(=O)N8CC[C@@H](F)C8)c7F)c6c5)cc4)CC3)CC2)C(C)(C)C)cc1` are above 70% and below 10 nM.
The matching figures for `Cc1ncsc1-c1ccc(CNC(=O)[C@@H]2C[C@@H](O)CN2C(=O)[C@@H](c2cc(OCCN3CCN(c4ccc(-c5cnc6[nH]cc(C(=O)c7c(F)ccc(NS(=O)(=O)N8CC[C@@H](F)C8)c7F)c6c5)cc4)CC3)no2)C(C)C)cc1`: above 70% and below 10 nM.
On the same counts, the results for `O=C1CCC(N2Cc3cc(N4CC[C@@H](N5CCN(c6ccc(-c7cnc8[nH]cc(C(=O)c9c(F)ccc(NS(=O)(=O)N%10CC[C@@H](F)C%10)c9F)c8c7)cc6)CC5)C4)ccc3C2=O)C(=O)N1` (some centres undefined) are below 70% and below 10 nM.
In the case of `Cc1ncsc1-c1ccc([C@H](C)NC(=O)[C@@H]2C[C@@H](O)CN2C(=O)[C@@H](NC(=O)CN2CCC(CN3CCN(c4ccc(-c5cnc6[nH]cc(C(=O)c7c(F)ccc(NS(=O)(=O)N8CC[C@@H](F)C8)c7F)c6c5)cc4)CC3)CC2)C(C)(C)C)cc1`, the %max in the test with A-375 is above 70%. In addition, the DC50 in test [1] was below 10 nM.
The matching figures for `O=C1CCC(N2Cc3cc(/C=C/CN4CCN(c5ccc(-c6cnc7[nH]cc(C(=O)c8c(F)ccc(NS(=O)(=O)N9CC[C@@H](F)C9)c8F)c7c6)cc5)CC4)ccc3C2=O)C(=O)N1` (some centres undefined): below 70% and below 10 nM.
As for `Cc1ncsc1-c1ccc(CNC(=O)[C@@H]2C[C@@H](O)CN2C(=O)[C@@H](NC(=O)CN2CC(N3CCN(c4ccc(-c5cnc6[nH]cc(C(=O)c7c(F)ccc(NS(=O)(=O)N8CC[C@@H](F)C8)c7F)c6c5)cc4)CC3)C2)C(C)(C)C)cc1`, the %max in the test on A-375 is above 70%. For the same molecule, the DC50 in test [1] was below 10 nM.
In the case of `O=C1CCC(N2Cc3cc(N4CC(N5CCN(c6ccc(-c7cnc8[nH]cc(C(=O)c9c(F)ccc(NS(=O)(=O)N%10CC[C@@H](F)C%10)c9F)c8c7)cc6)CC5)C4)ccc3C2=O)C(=O)N1` (some centres undefined), the %max with A-375 is below 70%. Also, the DC50 in test [1] was below 10 nM.
The matching figures for `O=C1CCC(N2Cc3cc(N4CC(OCC5CCN(c6ccc(-c7cnc8[nH]cc(C(=O)c9c(F)ccc(NS(=O)(=O)N%10CC[C@@H](F)C%10)c9F)c8c7)cc6)CC5)C4)ccc3C2=O)C(=O)N1` (some centres undefined): below 70% and below 10 nM.
The matching figures for `O=C1CCC(N2Cc3cc(CCCN4CCC5(C4)CN(c4ccc(-c6cnc7[nH]cc(C(=O)c8c(F)ccc(NS(=O)(=O)N9CC[C@@H](F)C9)c8F)c7c6)cc4)C5)ccc3C2=O)C(=O)N1` (some centres undefined): below 70% and below 10 nM.
In the case of `O=C1CCC(N2Cc3cc(N4CCN(Cc5ccc(-c6cnc7[nH]cc(C(=O)c8c(F)ccc(NS(=O)(=O)N9CC[C@@H](F)C9)c8F)c7c6)cc5)CC4)ccc3C2=O)C(=O)N1` (some centres undefined), the %max in the test with A-375 was above 70%. The DC50 in test [1] was below 10 nM.
For `Cc1ncsc1-c1ccc(CNC(=O)[C@@H]2C[C@@H](O)CN2C(=O)[C@@H](NC(=O)CN2CCC(CN3CCN(c4ccc(-c5cnc6[nH]cc(C(=O)c7c(F)ccc(NS(=O)(=O)N8CC[C@@H](F)C8)c7F)c6c5)cc4)CC3)CC2)C(C)(C)C)cc1`, the %max with A-375 was above 70%. Moreover, the DC50 in test [1] was below 10 nM.

The DC50 is the concentration giving 50% degradation.
